# Columns and labels:
# [1] = Solubility in PGME and PGMEA; assay type: physicochemical; settings: 23° C.
# Procedure: Herein, the solubility in PGME or PGMEA is defined as “Mass of resin/(Mass of resin+Mass of solvent)×100 (% by mass)”.
# The amount of each compound dissolved in 1-methoxy-2-propanol (PGME) and propylene glycol monomethyl ether acetate (PGMEA) was measured at 23° C., and the results were evaluated according to the following criteria.
# Evaluation A: 10% by weight or more
# Evaluation B: 3% by weight or more and less than 10% by weight
# Evaluation C: less than 3% by weight
# Pyrolysis temperature = assay type: physicochemical; settings: thermogravimetric measurement (TG); nitrogen stream, 10° C./min
# Procedure: An EXSTAR 6000 DSC apparatus manufactured by SII NanoTechnology Inc. was used, and about 5 mg of a sample was placed in an unsealed aluminum container and heated to 500° C. at a rate of temperature rise of 10° C./min in a nitrogen gas (30 ml/min) stream. In this time, a temperature at which a reducing portion appeared on the base line was defined as a pyrolysis temperature (Tg).
pyrolysis temperature (Pyrolysis temperature) [°C],solubility in PGME and PGMEA ([1]; 1-methoxy-2-propanol (PGME) and propylene glycol monomethyl ether acetate (PGMEA)) [% by weight],SMILES,solubility in PGME and PGMEA (Evaluation) [1]
410,–,Oc1ccc2c3c(ccc2c1)Oc1ccc2cc(O)ccc2c1C3c1ccc(-c2ccc(C3c4c(ccc5cc(O)ccc45)Oc4ccc5cc(O)ccc5c43)cc2)cc1 [BisN-13],B (3% by weight or more and less than 10% by weight)
450,–,Oc1ccc2c3c(ccc2c1)Oc1ccc2cc(O)ccc2c1C31c2ccccc2-c2ccccc21 [BisN-11],B (3% by weight or more and less than 10% by weight)
410,–,Oc1ccc2c3c(ccc2c1)Oc1ccc2cc(O)ccc2c1C3c1cc(C2c3c(ccc4cc(O)ccc34)Oc3ccc4cc(O)ccc4c32)cc(C2c3c(ccc4cc(O)ccc34)Oc3ccc4cc(O)ccc4c32)c1 [BisN-14],B (3% by weight or more and less than 10% by weight)
410,–,Oc1ccc2c3c(ccc2c1)Oc1ccc2cc(O)ccc2c1C3c1ccc(C2c3c(ccc4cc(O)ccc34)Oc3ccc4cc(O)ccc4c32)cc1 [BisN-12],B (3% by weight or more and less than 10% by weight)

# Further lines, the compound ahead of its results:
SMILES,pyrolysis temperature (Pyrolysis temperature) [°C],solubility in PGME and PGMEA ([1]; 1-methoxy-2-propanol (PGME) and propylene glycol monomethyl ether acetate (PGMEA)) [% by weight],solubility in PGME and PGMEA (Evaluation) [1]
Oc1cc2ccccc2c2c1Oc1c(O)cc3ccccc3c1C2c1ccc(-c2ccccc2)cc1 [BisN-6],410,–,B (3% by weight or more and less than 10% by weight)
Oc1ccc2c3c(ccc2c1)Oc1ccc2cc(O)ccc2c1C3c1ccc(-c2ccccc2)cc1 [BisN-1],410,≥ 20,A (10% by weight or more)
Oc1ccc2c3c(ccc2c1)Oc1ccc2cc(O)ccc2c1C3c1cc2ccccc2c2ccccc12 [BisN-8],415,–,B (3% by weight or more and less than 10% by weight)
Oc1ccc2ccc3c(c2c1)C(c1ccc(-c2ccccc2)cc1)c1c(ccc2ccc(O)cc12)O3 [BisN-2],410,–,B (3% by weight or more and less than 10% by weight)
Oc1ccc2ccc3c(c2c1)Oc1c(ccc2ccc(O)cc12)C3c1ccc(-c2ccccc2)cc1 [BisN-5],410,–,B (3% by weight or more and less than 10% by weight)
Oc1ccc2c3c(ccc2c1)Oc1ccc2cc(O)ccc2c1C3c1cccc2ccccc12 [BisN-7],415,–,B (3% by weight or more and less than 10% by weight)
Oc1cccc2c3c(ccc12)C(c1ccc(-c2ccccc2)cc1)c1ccc2c(O)cccc2c1O3 [BisN-3],410,–,B (3% by weight or more and less than 10% by weight)
Oc1ccc2c3c(ccc2c1)Oc1ccc2cc(O)ccc2c1C31CCCCC1 [BisN-10],400,–,B (3% by weight or more and less than 10% by weight)
Oc1cccc2c3c(ccc12)Oc1ccc2c(O)cccc2c1C3c1ccc(-c2ccccc2)cc1 [BisN-4],410,–,B (3% by weight or more and less than 10% by weight)
Oc1ccc2c3c(ccc2c1)Oc1ccc2cc(O)ccc2c1C3c1ccc2ccc3cccc4ccc1c2c34 [BisN-9],420,–,B (3% by weight or more and less than 10% by weight)

# From patent publication US9316913B2, “Underlayer film-forming material for lithography, underlayer film for lithography, and pattern formation method” (MITSUBISHI GAS CHEMICAL COMPANY, INC., priority 2011, dated 2016)
